In publication PMC4542628, “Lys39-Lysophosphatidate Carbonyl Oxygen Interaction Locks LPA1 N-terminal Cap to the Orthosteric Site and partners Arg124 During Receptor Activation” (Scientific Reports, 2015):

What was measured:
LPA1 K7.36A mutant = target: T1, LPA1 K7.36A mutant (Homo sapiens, UniProt Q92633, K294A); assay: Intracellular calcium mobilization in B103 cells expressing K7.36A LPA1 mutant; assay type: cell-based; settings: at the highest concentration tested
T1 construct: expressed in transfected cells; host or cells: B103 rat neuroblastoma cells, electroporated with pCAGGS-HA-LPA1 mutant
T1 sequence (Q92633 whole entry K294A): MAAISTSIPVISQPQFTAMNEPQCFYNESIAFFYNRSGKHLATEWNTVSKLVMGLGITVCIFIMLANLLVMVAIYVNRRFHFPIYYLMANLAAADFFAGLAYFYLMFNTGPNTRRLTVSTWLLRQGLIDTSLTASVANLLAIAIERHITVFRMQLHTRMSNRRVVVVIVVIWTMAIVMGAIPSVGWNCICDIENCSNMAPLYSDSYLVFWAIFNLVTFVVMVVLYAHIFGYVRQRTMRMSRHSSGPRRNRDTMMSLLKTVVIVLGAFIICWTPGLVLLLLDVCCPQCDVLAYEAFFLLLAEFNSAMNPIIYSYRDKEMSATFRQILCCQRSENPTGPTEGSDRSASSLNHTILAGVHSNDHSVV
Excerpt: (§1) PCXN2.1-LPA1, an expression vector for human LPA1, was kindly provided by Dr. T. Shimizu (NCGM, Tokyo) (40). The mutants of LPA1 (Lys39Ala, Arg115Ala, Arg124Ala, Asp191Ala and Lys294Ala) were generated by a two-step PCR. The cDNA of the 5′ portion of LPA1 was amplified by PCR using a forward primer containing XhoI site and reverse primers containing the sequence encoding the mutated amino acids. The 3′ portion was also amplified with forward primers containing the mutated sequence and a reverse primer containing NotI and BglII sites. All cDNAs of the LPA1 variants were amplified using a mixture of the two PCR products together with the XhoI and NotI-containing primers. The resulting 1.0 KB products were cloned into a pCRII-Topo vector for sequence analysis. The cDNA of LPA1 mutants were cut out from pCRII-Topo by XhoI and NotI, and ligated into the XhoI/NotI sites of pCAGGS-HA (41), to generate pCAGGS-HA-LPA1 mutants.
(§2) B103 rat neuroblastoma cells that lack LPA response were cultured in DMEM containing 10% fetal bovine serum at 37 °C in a 5% CO2 atmosphere. […] After 30 min, 20 μl of the LPA species at defined concentration was added followed by an immediate recording of the fluorescence using the Functional Drug Screening System/μCell (Hamamatsu Photonics K.K., Hamamatsu city, Japan). The fluorescence intensity was described as fura-2 ratio (tested value/basal value) or fold induction. […]

LPA1 = test system: LPA1; parameters: method as in earlier work; settings: acting on LPA1; ref 31 (Williams et al.); cited from earlier work
wildtype LPA1 = target: T2, wildtype LPA1 (Homo sapiens, UniProt Q92633); assay: Intracellular calcium mobilization in B103 cells expressing wild-type LPA1; assay type: cell-based
T2 construct: expressed in transfected cells; host or cells: B103 rat neuroblastoma cells (lack LPA response), electroporated
T2 sequence (Q92633 whole entry): as the sequence (Q92633 whole entry K294A) above, with A294K counted along it
Excerpt: as §1, §2

intracellular calcium mobilization, Emax levels of the wildtype (LPA1 K7.36A mutant) | potency compared with LPA (18:1), dose-response curve (wildtype LPA1) | Compound | EC50 (LPA1) [µM]
≈ 60% | – | CCCCC/C=C\C/C=C\C/C=C\C/C=C\CCCC(=O)OC[C@@H](O)COP(=O)(O)O.N [LPA 20:4, 1-arachidonoyl-2-hydroxy-sn-glycero-3-phosphate (ammonium salt)] | –
– | right-shift in the dose-response curve | alkyl glycerol phosphate 18:1 [AGP (18:1)] | 1.5
